We go through twelve compounds from ChEMBL document CHEMBL3593204, “Discovery of substituted 1,4-dihydroquinolines as novel class of ABCB1 modulators” (Bioorg Med Chem, 2015).

In data set [1] the target is T1, ATP-dependent translocase ABCB1 (Homo sapiens, UniProt P08183). Description: Inhibition of human ABCB1 expressed in mouse L5178Y cells using rhodamine 123 as substrate assessed as ratio of fluorescent intensity in ABCB1 expressing L5178Y cells to wild type L5178Y cells at 1 uM after 20 mins by flow cytometry. The data set is classed as cell-based. On the technique in general: A flow cytometer gives signals particle by particle.
T1 sequence (P08183 whole entry): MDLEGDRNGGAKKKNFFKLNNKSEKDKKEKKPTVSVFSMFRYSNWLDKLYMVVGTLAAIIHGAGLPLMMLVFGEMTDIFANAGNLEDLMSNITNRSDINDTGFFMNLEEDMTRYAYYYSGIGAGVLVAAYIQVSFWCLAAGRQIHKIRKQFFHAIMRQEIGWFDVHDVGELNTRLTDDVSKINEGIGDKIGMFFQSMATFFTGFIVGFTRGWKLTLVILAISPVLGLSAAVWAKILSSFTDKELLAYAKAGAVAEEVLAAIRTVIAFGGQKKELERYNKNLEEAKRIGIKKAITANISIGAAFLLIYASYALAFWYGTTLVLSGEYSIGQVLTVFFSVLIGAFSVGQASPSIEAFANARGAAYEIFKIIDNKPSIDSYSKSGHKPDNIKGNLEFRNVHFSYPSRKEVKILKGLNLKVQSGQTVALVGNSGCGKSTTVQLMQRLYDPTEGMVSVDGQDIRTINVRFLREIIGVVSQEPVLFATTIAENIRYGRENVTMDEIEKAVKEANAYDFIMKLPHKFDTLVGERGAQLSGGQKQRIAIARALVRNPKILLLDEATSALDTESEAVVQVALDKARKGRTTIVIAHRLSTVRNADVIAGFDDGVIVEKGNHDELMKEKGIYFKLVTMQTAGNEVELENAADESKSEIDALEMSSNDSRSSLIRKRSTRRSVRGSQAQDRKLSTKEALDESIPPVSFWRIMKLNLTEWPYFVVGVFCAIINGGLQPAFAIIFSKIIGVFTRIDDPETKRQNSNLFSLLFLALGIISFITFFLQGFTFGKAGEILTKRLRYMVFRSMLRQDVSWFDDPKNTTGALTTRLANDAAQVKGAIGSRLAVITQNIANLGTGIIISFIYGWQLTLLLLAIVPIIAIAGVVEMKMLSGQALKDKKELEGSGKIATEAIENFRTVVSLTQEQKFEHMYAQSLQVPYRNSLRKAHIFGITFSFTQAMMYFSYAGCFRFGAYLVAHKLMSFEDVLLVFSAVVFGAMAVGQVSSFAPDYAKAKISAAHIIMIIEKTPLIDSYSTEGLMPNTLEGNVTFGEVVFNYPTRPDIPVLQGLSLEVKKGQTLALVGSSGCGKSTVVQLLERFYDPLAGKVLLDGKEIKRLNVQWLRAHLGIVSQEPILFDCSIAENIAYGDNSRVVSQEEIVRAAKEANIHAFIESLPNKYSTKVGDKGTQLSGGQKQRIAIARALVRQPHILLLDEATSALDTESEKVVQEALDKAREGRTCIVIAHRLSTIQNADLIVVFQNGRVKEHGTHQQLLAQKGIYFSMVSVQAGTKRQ

Data set [2] has as its target T1, ATP-dependent translocase ABCB1. Description: Inhibition of human ABCB1 expressed in mouse L5178Y cells using rhodamine 123 as substrate assessed as ratio of fluorescent intensity in ABCB1 expressing L5178Y cells to wild type L5178Y cells at 10 uM after 20 mins by flow cytometry. The data set is classed as cell-based.
Data set [3] has as its system L5178Y. Description: Cytotoxicity against wild type mouse L5178Y cells after 48 hrs by MTT assay. The data set is classed as cell-based. On the technique in general: Tetrazolium assays rely on reduction of a dye to a coloured formazan, in cell work by metabolically active cells.
The test system of data set [4] is L5178Y. The data set is described as follows: Cytotoxicity against wild type mouse L5178Y cells by MTT assay. Type of data set: cell-based.
Data set [5] deals with L5178Y. Description: Cytotoxicity against mouse L5178Y cells expressing human ABCB1 by MTT assay. Type of data set: ADME, cell-based.
For data set [6], the system named is L5178Y. The data set is described as follows: Cytotoxicity against mouse L5178Y cells expressing human ABCB1 after 48 hrs by MTT assay. Type of data set: ADME, cell-based.
Data set [7] has as its system EPG85-257P. The data set is described as follows: Induction of ABCB1 expression in human EPG85-257P cells at 10 uM after 72 hrs by Western blot analysis. Type of data set: functional, cell-based. (In western blotting, separated proteins are transferred to a membrane and probed.)
The species entered for data set [8] is Homo sapiens. Description: Induction of ABCB1 expression in human EPG85-257RDB cells at 10 uM after 72 hrs by Western blot analysis. The data set is classed as functional, cell-based.
For data set [9], the system named is EPG85-257P. Description: Induction of ABCB1 expression in human EPG85-257P cells at 10 uM after 72 hrs by Western blot analysis in presence of daunorubicin. Type of data set: functional, cell-based.
For data set [10], the species on record is Homo sapiens. The data set is described as follows: Induction of ABCB1 expression in human EPG85-257RDB cells at 10 uM after 72 hrs by Western blot analysis in presence of daunorubicin. Type of data set: functional, cell-based.
Another data set relates to A2780cisR. Description: Induction of ABCB1/2 expression in human A2780cisR cells at 10 uM after 72 hrs by Western blot analysis. Type of data set: functional, cell-based.
Data set [11] has as its target T1, ATP-dependent translocase ABCB1. The data set is described as follows: Ratio of verapamil to compound for inhibition of human ABCB1 expressed in mouse L5178Y cells using rhodamine 123 as substrate assessed as ratio of fluorescent intensity in ABCB1 expressing L5178Y cells to wild type L5178Y cells at 1 to 10 uM after 20 mins by flow cytometry. Type of data set: cell-based.

The source made the active and inactive calls. No cut-off for these calls is given here.

By IC50 is commonly meant the midpoint of a concentration-inhibition curve. A higher IC50 goes with a need for much substance. As for `CCOC(=O)C1=CN(Cc2cccc(OC)c2)c2ccccc2C1c1ccc(OC)c(OC)c1` (stereo not drawn), the Ratio in [1] is given as 2.98; in [2], 15.86. Moreover, the Activity entry with L5178Y [3] and in the data set on L5178Y [6] was “Non-toxic” in each case. Further, the IC50 in the data set on L5178Y [4] and in the data set with L5178Y [5] was more than 160 µM throughout. Besides, the result with EPG85-257P [7], in the data set listed under Homo sapiens [8], in the data set on EPG85-257P [9], in the data set filed under Homo sapiens [10] and in the data set on A2780cisR was inactive.

`COc1ccc(CCN(C)CCCC(C#N)(c2ccc(OC)c(OC)c2)C(C)C)cc1OC` (stereo not drawn) [VERAPAMIL]: the Ratio in [1] was found to be 1.46; in data set [2] it was 4.98.

Turning to `CCOC(=O)C1=CN(Cc2ccc(OC)cc2)c2ccccc2C1c1ccc(OC)cc1` (stereo not drawn), the Ratio in data set [1] is reported as 2.55; in data set [2], 13.66.

On to `CCOC(=O)C1=CN(Cc2ccccc2)c2ccccc2C1c1ccc(OC)c(OC)c1` (stereo not drawn), for which the Ratio in [1] worked out at 3.42; in data set [2], 12.77; in data set [11] it was 2.5. The Activity entry in the data set with L5178Y [3] and in the data set with L5178Y [6] was “Non-toxic” in each case. The half-maximal inhibitory concentration (IC50) with L5178Y [4] and in the data set with L5178Y [5] was more than 160 µM in each case.

`CCOC(=O)C1=CN(Cc2cccc(OC)c2)c2ccccc2C1c1cc(OC)cc(OC)c1` (stereo not drawn): the Ratio in data set [1] is 2.71; in [2] it was 13.11.

As for `CCOC(=O)C1=CN(Cc2ccc(OC)cc2)c2ccccc2C1c1ccc(OC)c(OC)c1` (stereo not drawn), the Ratio in data set [1] worked out at 2.41; in data set [2], 15.84.

On to `CCOC(=O)C1=CN(Cc2ccc(OC)cc2)c2ccccc2C1c1cccc(OC)c1` (stereo not drawn), for which the Ratio turned out to be 2.03 in data set [1] and 10.34 in data set [2].

Turning to `CCOC(=O)C1=CN(Cc2cccc(OC)c2)c2ccccc2C1c1ccc(OC)cc1` (stereo not drawn), the Ratio came to 2.23 in [1] and 9.95 in [2].

For `CCOC(=O)C1=CN(Cc2ccc(OC)cc2)c2ccccc2C1c1cc(OC)cc(OC)c1` (stereo not drawn), the Ratio in data set [1] amounted to 3.63; in data set [2] it was 13.36.

For the compound `CCOC(=O)C1=CN(Cc2cccc(OC)c2)c2ccccc2C1c1cccc(OC)c1` (stereo not drawn), the Ratio is reported as 2.26 in data set [1] and 9.68 in [2].

For the compound `CCOC(=O)C1=CN(Cc2ccccc2)c2ccccc2C1c1cc(OC)cc(OC)c1` (stereo not drawn), the Ratio turned out to be 2.96 in [1] and 10.5 in data set [2].

With `CCOC(=O)C1=CN(Cc2ccccc2)c2ccccc2C1c1ccccc1` (stereo not drawn), the values for the Ratio in data set [1] and in data set [2] were 1.48 and 4.72, respectively.
